The values that follow come from US11896589B2, “Diazinyl amino acridines and medical uses thereof” (MyCural Therapeutics AB, priority 2018, dated 2024).

Where a name gives a salt, the structure may show the parent alone.

Assay [1] concerns the target T1, MYCbHLHZip (Homo sapiens, UniProt P01106).
T1 construct: An amino coupling procedure was used to immobilize MYCbHLHZip protein on a CM5 sensor chip
The experiment in a line: Assay 2B MYC SPR assay. The class given is binding. The note with it: equilibrium binding experiments. As for the experimental part: FIG. 3: A) SPR assay to determine affinity of Example 1 to MYC. MYC bHLHZip protein was immobilized by aminocoupling on a CM5 sensor chip. Example 1 was injected at various concentrations in a kinetic experiment. The reference surface was subtracted from the analyte surface to generate a sensorgram. […] B) Four MYC equilibrium binding experiments with Example 1 summarized in an equilibrium binding plot. […] Equilibrium binding experiments of MYC with Example 2 and control compound (non-binder) were plotted as well. Assay 2B. MYC SPR Assay To analyze the direct binding of compounds to MYC, the direct binding of compounds to MYC was detected by surface plasmon resonance (SPR) as described above (Biological example 1—Assay 1B). An amino coupling procedure was used to immobilize MYCbHLHZip protein on a CM5 sensor chip (GE Healthcare) resulting in immobilization levels of approximately 800 respectively 1000 RU. The compounds were injected at different concentrations, one at a time, over the surface for 50-80 seconds with a flow rate of 30 μl/min. Afterwards the compounds were allowed to dissociate for 240 seconds in running buffer (137 mM NaCl, 2.7 mM KCl, 10 mM Na2HPO4, 1.8 mM KH2PO4, 0.005% Tween-20, 1% DMSO, pH 7.4). To remove all remaining analyte the surface was regenerated with 2M Urea for 30 seconds and thereafter 1M NaCl, 2.7 mM KCl, 10 mM Na2HPO4, 1.8 mM KH2PO4, 1% DMSO, pH 7.4 for 30 seconds. Sensorgrams were generated by subtraction of the reference (blank immobilized) surface. Binding responses were related to respective compounds' Rmax. Rmax is the maximum response of a compound when it binds with a 1:1 stochiometry to the protein; Rmax=(MW analyte/MW ligand)×immobilized ligand level on the chip (RU) x stoichiometry (1:1). Kinetic experiments were carried out where recombinant MYC bHLHZip was immobilized on the chip and different concentrations of Example 1 were injected as above. […] Example 2-6 were analyzed for their MYC binding properties by equilibrium binding experiments as described for example 1.

For assay [2], the target named is T2, MYC:MAX (MYC-GLuc-C + MAX-GLuc-N) in HEK293 cells (Homo sapiens, UniProt P01106).
T2 construct: expressed in transfected cells; host or cells: HEK293 (also COS-7)
The experiment in a line: Assay 3C GLuc complementation assay. The format is cell-based. The note with it: HEK293. The procedure: FIG. 4: A) Endogenous MYC:MAX (upper panel) and FRA1:JUN (lower panel) interactions as visualized as fluorescent red dots by isPLA. Nuclei were counterstained with DAPI (blue). Cells were treated with 10 μM of indicated compounds for 16 hours and subjected to isPLA using pairs of MYC and MAX and of FRA1 and JUN antibodies, respectively. As negative control, primary antibody pairs but only one oligo-conjugated secondary antibody was used. B) Quantification of MYC:MAX and C) FRA1:JUN isPLA, representing an average number of nuclear dots per cell from three microscopic fields normalized to corresponding values for DMSO-treated cells. […] 1st-4th lanes from top; coimmunoprecipitated MAX, immunoprecipitated MYC, total levels of MAX and ACTIN, respectively, as determined by western blot analysis. E) MYC:MAX GLuc assay in cells. […] 24 hours later cells were treated with […] of Example 1, Example 2 and control compound for 16 hours and thereafter analyzed in a dual luciferase assay. The ratio of Gaussia/Firefly luciferase luminescence were calculated and normalized to DMSO-treated cells.
The protein fragment complementation assay using the Gaussia luciferase (GLuc) has been described (Remy, I. & Michnick, S. W. A highly sensitive protein-protein interaction assay based on Gaussia luciferase. Nat Methods 3, 977-979, doi:10.1038/nmeth979 (2006)). […] 24 hours later cells were treated with compound or DMSO. After another 17 hours the cells were harvested and lyzed in passive lysis buffer (Promega) supplemented with complete protease inhibitor (Roche). After 60 min incubation at room temperature 20 μM D-luciferin was added (substrate of Firefly luciferase) and luminescence was measured in a Lumat LB9501 (Berthold) or OmegaFluostar (BMG Labtech) luminometer. Directly after, the Gaussia luciferase substrate Coelenterazine (Promega) was added to a final concentration of 20 μM and the luciferase activity was measured. The ratio between Gaussia and Firefly luciferase values were calculated and normalized to DMSO-treated control cells.

Assay [3] relates to MYCN-amplified neuroblastoma cells (SK-N-DZ, Kelly, IMR-32). The experiment in a line: Assay 5A neuroblastoma cell growth (WST-1), MYCN-amplified. The format is cell-based. The note with it: Homo sapiens. As for the experimental part: (§1) FIG. 6: A-B) Neuroblastoma cell lines with (SK-N-DZ, Kelly and IMR-32) or without (SK-N-F1, SK-N-RA and SK-N-AS) MYCN-amplification were exposed to different concentrations of Example 1, Example 2 and control compound, respectively, for 48 hours. Cell growth and viability was estimated by measuring metabolic activity. C) Growth of TGR-1 (wt), HO15.19 (MYC knockout) and HOmyc3 (MYC reconstituted HO15.19) Rat1 fibroblasts, as measured by the WST-1 assay after treatment with Example 1. Data are shown as mean±standard deviation of 3-5 biological experiments, each with 3 technical repeats.
(§2) Assay 5A: Neuroblastoma Cell Growth
(§3) Neuroblastoma cell lines with (SK-N-DZ, Kelly and IMR-32) or without (SK-N-F1, SK-N-RA and SK-N-AS) MYCN-amplification were exposed to different concentrations of example compounds for 48 hours. Cell growth and viability was estimated by measuring metabolic activity by incubating cells in triplicates with WST-1 (Roche) in medium at 37° C. and 5% CO2 for 2 hours after which absorbance was measured with an Omega Fluostar (BMG Labtech) in a 96 well plate format.
A general note: Tetrazolium assays rely on reduction of a dye to a coloured formazan, in cell work by metabolically active cells.

Assay [4] has as its system non-MYCN-amplified neuroblastoma cells (SK-N-F1, SK-N-RA, SK-N-AS). The experiment in a line: Assay 5A neuroblastoma cell growth (WST-1), non-MYCN-amplified. The format is cell-based. The note with it: Homo sapiens, SK-N-AS. The procedure: as §1, §2, §3
Assay [5] concerns Tgr and H0Myc3 Rat1 fibroblast cells. The assay is described as follows: Assay 5B Tgr cell growth (WST-1), MYC expressing. The format is cell-based, rat. The note with it: Tgr/H0Myc3 vs H015.19. As for the experimental part:
as §1
Assay 5B: Tgr Cell Growth
Tgr cells were treated at 37° C. and 5% CO2 at 48 hours with Example and Example 2. H015.19 is a MYC null rat cell line derived from Tgr1 (parental cells), while H0Myc3 cells were generated from the MYC null cells by reconstitution of a MYC gene(Mateyak, M. K., Obaya, A. J., Adachi, S. & Sedivy, J. M. Phenotypes of c-Myc-deficient rat fibroblasts isolated by targeted homologous recombination. Cell Growth Differ 8, 1039-1048 (1997)).

T1 sequence (P01106 368-449 limits assumed): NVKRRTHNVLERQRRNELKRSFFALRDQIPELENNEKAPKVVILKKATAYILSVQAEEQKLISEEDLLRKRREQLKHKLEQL
T2 sequence (P01106 whole entry): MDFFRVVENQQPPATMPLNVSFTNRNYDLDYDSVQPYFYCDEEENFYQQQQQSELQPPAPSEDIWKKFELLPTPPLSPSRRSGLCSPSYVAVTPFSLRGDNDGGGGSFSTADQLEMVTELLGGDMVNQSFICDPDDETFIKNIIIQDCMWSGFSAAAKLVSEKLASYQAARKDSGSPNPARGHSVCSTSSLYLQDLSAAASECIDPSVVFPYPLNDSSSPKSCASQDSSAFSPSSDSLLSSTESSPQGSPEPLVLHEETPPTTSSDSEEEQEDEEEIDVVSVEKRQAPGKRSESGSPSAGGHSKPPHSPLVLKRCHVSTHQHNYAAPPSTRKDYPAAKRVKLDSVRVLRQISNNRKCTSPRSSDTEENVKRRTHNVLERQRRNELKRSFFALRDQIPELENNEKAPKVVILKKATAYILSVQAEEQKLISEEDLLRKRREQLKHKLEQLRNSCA

As usually defined, the inhibition is how much of the control response was suppressed. By GI50 is commonly meant the concentration giving 50% growth inhibition. In the case of `CCOc1ccc2nc3cc(/N=N/c4cc(C)c(O)cc4C)ccc3c(N)c2c1` [Example 2, 4-((9-amino-7-ethoxyacridin-3-yl)diazenyl)-3,6-dimethylphenol], the “Binding relative to Rmax” value in assay [1] is 1.2 Response Units. In assay [2], the inhibition at 10 µM was determined as 65%. The GI50 in assay [3] (first run, 48 hours) is 4 µM; in assay [3] (second run), 2.5 µM; in assay [4] (48 h, first run), 12.5 µM; in assay [4] (second run), 10 µM. The “discrimination between cells dependent on MYC status” value in assay [5] was “discriminated between cells dependent on MYC status”.

Regarding `CCOc1ccc2nc3cc(/N=N/c4c(C)cc(O)cc4C)ccc3c(N)c2c1` [Example 3, 4-((9-amino-7-ethoxyacridin-3-yl)diazenyl)-3,5-dimethylphenol hydrate], the “Binding relative to Rmax” value in assay [1] worked out at 1.5 Response Units. Also, the figures for the GI50 in assay [3] (second run) and in assay [4] (second run) were 2 µM and over 25 µM, respectively.

On to `CCOc1ccc2nc3cc(/N=N/c4cc(C)c(O)c(C)c4)ccc3c(N)c2c1` [Example 6, 4-((9-amino-7-ethoxyacridin-3-yl)diazenyl)-2,6-dimethylphenol], for which the “Binding relative to Rmax” value in assay [1] is on record as 0.8 Response Units. The GI50 in assay [3] (second run) is 1 µM; in assay [4] (second run), over 25 µM.

Consider `CCOc1ccc2nc3cc(/N=N/c4ccc(O)c(CNCCN(C)C)c4)ccc3c(N)c2c1` [Example 8, 4-[(E)-(9-amino-7-ethoxy-acridin-3-yl)azo]-2-[[2-(dimethylamino)ethylamino]methyl]phenol hydrochloride], for which the concentration for 50% growth inhibition (GI50) in assay [3] (second run) was found to be 4 µM; in assay [4] (second run), 10 µM.

As to `CCOc1ccc2nc3cc(/N=N/c4ccc(O)c(CN(C)CCN(C)C)c4)ccc3c(N)c2c1` [Example 9, 4-[(E)-(9-amino-7-ethoxy-acridin-3-yl)azo]-2-[[2-(dimethylamino)ethyl-methyl-amino]methyl]phenol], the GI50 in assay [3] (second run) is 6 µM; in assay [4] (second run) it was 11 µM.

Turning to `CCOc1ccc2nc3cc(/N=N/c4ccc(O)c(CO)c4)ccc3c(N)c2c1` [Example 10, 4-[(E)-2-(9-amino-7-ethoxyacridin-3-yl)diazen-1-yl]-2-(hydroxymethyl)phenol], in assay [3] (second run), it took 15 µM to inhibit growth by half (GI50).

Regarding `CCOc1ccc2nc3cc(/N=N/c4ccc(O)c(CN(C)C)c4)ccc3c(N)c2c1` [Example 12, 4-[(E)-2-(9-amino-7-ethoxyacridin-3-yl)diazen-1-yl]-2-((dimethylamino)methyl)phenol], it took 25 µM to inhibit growth in assay [3] (second run) by half (GI50).
